Measured values published in patent US20180221295A1, “PHARMACEUTICAL COMPOSITION COMPRISING ELECTROHYDRODYNAMICALLY OBTAINED FIBRES, THE COMPOSITION HAVING IMPROVED RESIDENCE TIME ON THE APPLICATION SITE” (DERMTREAT APS, priority 2015, published 2018).

What was measured:
[1] = In vitro drug release testing of fibres in Green's cell culture medium (HPLC); type: physicochemical; conditions: 1.2x1.2 cm samples in 5 mL Green's cell culture medium, 37° C., 30, 60 and 120 minutes
Procedure: Compositions: Same as in example 4.
Composition of Green's cell culture medium - Dulbecco's Modified Eagle's Medium: Ham's F12 medium in a 3:1 (v/v) ratio supplemented with 10% (v/v) FCS • 0.1 μM cholera toxin • 10 ng/ml of epidermal growth factor (EGF) • 0.4 μg/ml hydrocortisone • 0.18 mM adenine • 5 μg/ml insulin • 5 μg/ml transferrin • 2 mM glutamine • 0.2 μM triiodothyronine • 0.625 μg/ml amphotericin B • 100 IU/ml penicillin • 100 μg/ml streptomycin
Method of Analysis: • Samples of dimensions 1.2×1.2 cm were cut from each fibre composition and were placed in vials containing 5 mL of Green's cell culture medium. • All vials were incubated at 37° C. for 30, 60 and 120 minutes. • At those time points, 1.5 mL of cell culture media were removed from each vial • The concentration of clobetasol propionate released from the fibres was measured using high-performance liquid chromatography (HPLC).

[2] = in vivo; cited from earlier work
[3] = in vivo; cited from earlier work; remark: listed apart in the source

CCC(=O)O[C@]1(C(=O)CCl)[C@@H](C)C[C@H]2[C@@H]3CCC4=CC(=O)C=C[C@]4(C)[C@@]3(F)[C@@H](O)C[C@@]21C [clobetasol propionate]
Release of clobetasol propionate from electrospun fibres [1]: released after immersion in cell culture media

C[C@]12CCC(=O)C=C1CC[C@@H]1[C@@H]2[C@@H](O)C[C@@]2(C)[C@H]1CC[C@]2(O)C(=O)CO [Hydrocortisone]
Absorption from the gut [2]: no significant absorption from the gut

C/C=C(/C)C(=O)O[C@H]1C(C)=C[C@]23C(=O)[C@@H](C=C(CO)[C@@H](O)[C@]12O)[C@H]1[C@@H](C[C@H]3C)C1(C)C [Ingenol mebutate]
Absorption through the skin [3]: practically not absorbed through the skin
